Values quoted from earlier work, collected in US20240182421A1, “SYNTHESIS OF ENDOCHIN-LIKE QUINOLONES” (Oregon Health & Science University, priority 2021, published 2024).
Entries after “also recorded” stand apart in the source; their conditions may differ.

What was measured:
[1] = test system: apicomplexan parasites of importance to veterinary medicine
malaria = details: compared with ELQ-300
avian malaria = details: in vivo

Row | SMILES | activity against a range of apicomplexan parasites of importance to veterinary medicine [1] | antiparasitic activity / potency against Toxoplasma gondii (Toxoplasma gondii) | antimalarial activity in vivo (malaria) | antiparasitic activity / potency against Babesia microti (Babesia microti) | activity in the avian malaria model (avian malaria)
1 | COc1cc2[nH]c(C)c(-c3ccc(Oc4ccc(OC(F)(F)F)cc4)cc3)c(=O)c2cc1Cl [ELQ-300, 6-Chloro-7-methoxy-2-methyl-3-(4-(4-(trifluoromethoxy)phenoxy)phenyl)quinolin-4(1H)-one] | active |  |  |  | 
2 | COc1cc2[nH]c(C)c(-c3ccc(Oc4ccc(OC(F)(F)F)cc4)cc3)c(=O)c2cc1F [ELQ-316, 6-Fluoro-7-methoxy-2-methyl-3-(4-(4-(trifluoromethoxy)phenoxy)phenyl)quinolin-4(1H)-one] | active | greatest potency; also recorded: superior antiparasitic activity | slightly less antimalarial activity than ELQ-300 | greatest potency; also recorded: superior antiparasitic activity | 
3 | CCCCCCCc1c(C)[nH]c2cc(OC)ccc2c1=O [endochin] |  |  |  |  | high activity
